We go through 1 compound from US12233060B2, “Inhibitors of Ataxia-Telangiectasia Mutated and Rad3-related protein kinase (ATR) for use in methods of treating cancer” (THE INSTITUTE OF CANCER RESEARCH: ROYAL CANCER HOSPITAL, priority 2016, dated 2025).

Structures are written as SMILES.

Common to all, as to format: cell-based, human
The test system of test [1] is HCT116 cells. Nature of the test: DNA fibre analysis, replication fork speed in HCT116 cells with SS18-SSX1. Particulars: 0.1 μM for two hours. The protocol:
FIG. 10. ATR inhibitors elicit replication fork stress in SS tumour cells. […] Error bars represent SEM from triplicate experiments. p values were derived from Student's t tests. B. Western blot illustrating PARP1 cleavage in SYO1 cells exposed to VX970 for 24 hours. C. Western blot illustrating H2AX phosphorylation (γH2AX) in SYO1 cells exposed to VX970 (0.1 μM). D. Confocal microspcopy images illustrating H2AX phosphorylation in SYO1 cells exposed to VX970 (0.1 μM, 24 hours). E. Bar chart depicting data from (D). Error bars represent SEM from 100 images. p values were derived from Student's t tests. F. Replication fork speeds in SYO1 cells exposed to 0.1 μM VX970 for two hours. p value was derived from a Student's t test. G. Replication fork speeds in HCT116 cells exposed to 0.1 μM VX970 for two hours in the presence and absence of ectopic expression of a SS18-SSX1 fusion protein. p values were derived from Student's t tests. Expression of SS18-SSX1 or exposure to VX970 reduced fork speed. Combined SS18-SSX1 expression and VX970 exposure enhanced the reduction in fork speed. H and I. FACS plots from SYO1 cells exposed to VX970.
ATRi induced cytotoxicity in tumour cells derived from carcinomas is often associated with an increase in replication fork stress.

Test [2] has as its system HCT116 ARID1A isogenic cells and TOV21G cells. The test can be described thus: Anaphase bridge analysis. The note with it: 0.5 uM, 8 hours. The protocol:
FIG. 5. ATRi effect on cell cycle progression, chromosomal instability, DNA damage and apoptosis. A. Barchart illustrating G2/M fraction in HCT116 ARID1A^+/+ and ARID1A^−/− cells synchronized in G1/early S phase by double thymidine block and released into fresh media containing DMSO or VX-970 (500 nM). The percentage of cells in G2/M was measured by FACS following PI staining. […] Cells were stained with DAPI. A minimum of 50 anaphases were scored in 3 biological replicate experiments. *p=0.023, Student's t-test. C. Bar chart illustrating frequency of anaphase bridges in TOV21G cells exposed to VX-970 (0.5 uM) or DMSO for 8 hours prior to fixation. Experiment performed as for (B). p=0.006 Student's t-test. D. Mitotic spread images from HCT116 ARID1A^+/+ and ARID1A^−/− cells following exposure to either DMSO or VX-970 (1 uM). Scale bar represents 20 um. E. Bar chart illustrating extent of chromosomal abnormalities in HCT116 ARID1A^+/+ and ARID1A^−/− cells exposed to VX-970 (1 uM). *p<0.05, Student's t-test. F. Western blot illustrating γH2AX in HCT116 ARID1A^+/+ and ARID1A^−/− cells exposed to VX-970 (0.5 uM) for the indicated time prior to cell lyses. G. Bar chart illustrating apoptotic fraction in cells exposed to increasing concentrations of VX-970 for 24 hours. Experiment as per FIG. 3I. H. Western blot illustrating PARP cleavage in HCT116 ARID1A^+/+ and ARID1A^−/− cells exposed to VX-970. […]

Test [3] relates to HCC1143 and HeLa cells. Nature of the test: Surviving fraction after five days VX-970 with SMARCA4 or ARID1A siRNA. Particulars: five days exposure. On the procedure: FIG. 6. BAF complex deficiency causes sensitivity to ATR inhibition. A. Schematic of BAF complex composition in human cells. B. VX-970 dose response curves from HCT116 cells transfected with siRNA targeting ARID1B or SMARCA4. 48 hours after transfection cells were exposed to VX-970 for 5 days. Error bars represent SD from triplicate experiments. p<0.0001, ANOVA for siARID1B and siSMARCA4 vs. siCON. C. Western blots illustrating ARID1B and SMARCA4 silencing in experiment (B). D. VX-970 dose response curves from four OCCC cell lines, 3 SMARCA4 wildtype (blue; RMG1, KK and ES2) and 1 SMARCA4 mutant (red; TOV112D). E. Bar chart illustrating surviving fraction after five days VX-970 exposure in HCC1143 and He1a cells transfected with siRNA targeting either SMARCA4 or ARID1A *p<0.05 by Student's t-test compared to siCon. F. Western blot illustrating level of chromatin bound TOP2A in HCT116 cells transfected siRNA targeting ARID1A, ARID1B or SMARCA4. Cells were analysed 48 hours after transfection. G. A model for the proposed mechanism driving the sensitivity of ARID1A-deficient cells to ATRi. Loss of function genomic alterations to ARID1A (or ARID1B/SMARCA4) lead to dysfunction of the BAF complex. This in turn causes decreased binding of TOP2A to chromatin, reducing the efficiency of chromosomal decatenation. […]

For `CNCc1ccc(-c2cc(-c3nc(-c4ccc(S(=O)(=O)C(C)C)cc4)cnc3N)on2)cc1` [VX-970, 5-[4-(Isopropylsulfonyl)phenyl]-3-(3-{4-[(methylamino)methyl]phenyl}-1,2-oxazol-5-yl)-2-pyrazinamine], in test [1], the “decrease in replication fork speed with SS18-SSX1 expression plus VX970” value is “enhanced by the addition of VX970”. For the same compound, the “frequency of anaphase bridges” value in test [2] is “increased level of anaphase bridges”. The “VX-970 sensitivity caused by SMARCA4 silencing vs ARID1A siRNA” value in test [3] is “comparable to that caused by ARID1A siRNA”.
